According to ChEMBL document CHEMBL1150395, “IRAK-4 inhibitors. Part II: a structure-based assessment of imidazo[1,2-a]pyridine binding” (Bioorg Med Chem Lett, 2008):

Key:
[1] = molecular target: T1, Mitogen-activated protein kinase 8 (Homo sapiens, UniProt P45983); test: Inhibition of JNK1 at 10 uM
[2] = molecular target: T2, Interleukin-1 receptor-associated kinase 4 (Homo sapiens, UniProt Q9NWZ3); test: Inhibition of IRAK4
T2 sequence (Q9NWZ3 whole entry): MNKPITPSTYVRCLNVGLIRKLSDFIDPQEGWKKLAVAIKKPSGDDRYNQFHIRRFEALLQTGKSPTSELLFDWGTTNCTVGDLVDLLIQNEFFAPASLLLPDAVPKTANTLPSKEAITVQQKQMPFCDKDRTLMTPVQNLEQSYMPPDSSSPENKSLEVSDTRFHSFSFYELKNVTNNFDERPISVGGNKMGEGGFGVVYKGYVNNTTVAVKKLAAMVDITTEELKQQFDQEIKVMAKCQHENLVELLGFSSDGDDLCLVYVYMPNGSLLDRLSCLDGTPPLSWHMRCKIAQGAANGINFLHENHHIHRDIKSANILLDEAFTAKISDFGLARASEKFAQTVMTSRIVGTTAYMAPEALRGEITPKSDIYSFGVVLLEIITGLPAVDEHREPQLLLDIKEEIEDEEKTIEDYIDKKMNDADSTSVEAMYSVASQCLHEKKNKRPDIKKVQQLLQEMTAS

[3] = molecular target: T3, Mitogen-activated protein kinase 9 (Homo sapiens, UniProt P45984); test: Inhibition of JNK2 at 10 uM
Target sequence in this assay (P45984 whole entry, looked up): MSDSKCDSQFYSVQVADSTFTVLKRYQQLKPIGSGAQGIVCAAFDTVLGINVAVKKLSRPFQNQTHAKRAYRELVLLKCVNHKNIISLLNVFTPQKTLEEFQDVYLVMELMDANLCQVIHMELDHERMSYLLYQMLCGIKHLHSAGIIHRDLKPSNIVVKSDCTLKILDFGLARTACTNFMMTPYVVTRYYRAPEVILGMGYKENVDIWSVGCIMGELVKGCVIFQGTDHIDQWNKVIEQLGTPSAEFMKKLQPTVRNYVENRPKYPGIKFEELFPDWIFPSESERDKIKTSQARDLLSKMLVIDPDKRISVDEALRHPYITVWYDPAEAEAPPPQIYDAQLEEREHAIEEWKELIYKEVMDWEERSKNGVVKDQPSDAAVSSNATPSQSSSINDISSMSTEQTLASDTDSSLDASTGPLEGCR

[4] = molecular target: Mitogen-activated protein kinase 10 (Homo sapiens, UniProt P53779); test: Inhibition of JNK3
Sequence of Mitogen-activated protein kinase 10 (P53779 whole entry): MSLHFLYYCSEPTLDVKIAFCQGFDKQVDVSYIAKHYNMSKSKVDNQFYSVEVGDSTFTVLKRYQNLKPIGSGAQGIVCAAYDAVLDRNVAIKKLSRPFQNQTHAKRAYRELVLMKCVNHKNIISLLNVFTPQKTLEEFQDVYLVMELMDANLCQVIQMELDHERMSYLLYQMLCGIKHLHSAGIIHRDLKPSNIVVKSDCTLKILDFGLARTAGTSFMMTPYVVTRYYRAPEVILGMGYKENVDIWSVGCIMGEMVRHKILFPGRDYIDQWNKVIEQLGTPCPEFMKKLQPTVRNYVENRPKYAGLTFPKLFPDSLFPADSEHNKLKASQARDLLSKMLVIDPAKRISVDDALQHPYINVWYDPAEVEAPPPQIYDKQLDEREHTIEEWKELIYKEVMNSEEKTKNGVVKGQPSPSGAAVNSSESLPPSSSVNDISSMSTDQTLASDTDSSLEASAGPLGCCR

[5] = molecular target: T4, Interleukin-1 receptor-associated kinase 4 (Homo sapiens) (UniProt Q9NWZ3); test: Inhibition of IRAK4 at 10 uM
T4 sequence (whole entry): T2 sequence (Q9NWZ3 whole entry)

[6] = molecular target: T1, Mitogen-activated protein kinase 8; test: Inhibition of JNK1
[7] = molecular target: T3, Mitogen-activated protein kinase 9; test: Inhibition of JNK2
Target sequence in this assay (P45984 whole entry): as the sequence (P45984 whole entry, looked up) above

T1 sequence (P45983 whole entry): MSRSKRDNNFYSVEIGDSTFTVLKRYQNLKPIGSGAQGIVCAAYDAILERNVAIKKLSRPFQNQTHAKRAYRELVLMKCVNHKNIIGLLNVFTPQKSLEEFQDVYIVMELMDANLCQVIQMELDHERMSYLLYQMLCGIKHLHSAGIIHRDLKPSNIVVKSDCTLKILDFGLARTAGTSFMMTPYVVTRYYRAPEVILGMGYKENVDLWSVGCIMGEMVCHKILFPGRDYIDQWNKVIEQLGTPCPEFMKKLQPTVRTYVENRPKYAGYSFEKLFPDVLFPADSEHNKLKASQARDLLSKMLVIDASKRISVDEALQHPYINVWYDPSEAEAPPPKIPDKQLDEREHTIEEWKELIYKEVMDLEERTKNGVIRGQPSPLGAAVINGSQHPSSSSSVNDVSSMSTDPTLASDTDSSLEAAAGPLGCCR

| Compound | inhibition [1] [%] | IC50 [2] [nM] | inhibition [3] [%] | IC50 [4] [nM] | inhibition [5] [%] | IC50 [6] [nM] | IC50 [7] [nM] |
| --- | --- | --- | --- | --- | --- | --- | --- |
| c1cc(NC2CCNCC2)nc(-n2cnc3ccccc32)c1 | 0 | 70 | 0 | – | – | – | – |
| CNC(=O)CN1CCC(Nc2nccc(-c3cnc4ccccn34)n2)CC1 | – | – | – | 270 | – | – | – |
| c1ccn2c(-c3ccnc(NC4CCNCC4)c3)cnc2c1 | 0 | – | 0 | – | 31 | – | – |
| c1cc(NC2CCNCC2)nc(-n2ccc3ccccc32)c1 | 0 | – | 0 | – | 30 | – | – |
| c1cc(NC2CCNCC2)nc(-c2cnc3ccccn23)c1 | 39 | 35 | 15 | – | – | – | – |
| c1ccn2c(-c3ccnc(NC4CCNCC4)n3)cnc2c1 | – | 216 | 59 | – | – | 3800 | – |
| c1cc(NC2CCNCC2)nc(-c2n[nH]c3ccccc23)c1 | – | 456 | – | – | – | 2080 | 1760 |
| CN(c1nccc(-c2cnc3ccccn23)n1)C1CCCCC1 | – | 400 | – | 3 | – | – | – |
| c1cc(NC2CCNCC2)nc(-c2cncc3ccccc23)c1 | 5 | 1930 | 0 | – | – | – | – |
| CN(c1nccc(-c2cnc3ccccn23)n1)C1CCNCC1 | 33 | 200 | 35 | – | – | – | – |
| c1ccn2c(-c3ccnc(OC4CCNCC4)n3)cnc2c1 | 24 | 1190 | 30 | – | – | – | – |
